Data reported in paper PMC10876669, “Substrate promiscuity of inositol 1,4,5-trisphosphate kinase driven by structurally-modified ligands and active site plasticity” (Nature Communications, 2024).
Where “and” joins values, the source holds several entries; their conditions need not be identical. Equal values may be shown once. Entries after “also recorded” stand apart in the source; their conditions may differ.

Assays:
[1] = target: T1, IP3K-KD (human IP3K-KD A isoform, residues 187–461) (Homo sapiens, UniProt P23677); test: Fluorescence thermal shift analysis (Tycho NT.6, inflection temperature Ti); type: binding; settings: for Ti, transition 1 (mean inflection temperature) / Ti, transition 2 (mean inflection temperature): 10 μM IP3K-KD, 100 μM chiral or 200 μM racemic ligand, AMP-PNP or ADP, 100 μM MgCl2; for Ti, transition 1 (mean inflection temperature) / Ti, transition 2 (mean inflection temperature) / ΔTi, transition 1 / ΔTi, transition 2: mean ± SD, n=3; for Binding to IP3K (in words): Fig. 6b,c; for ΔTi, transition 1: Ti minus Ti of apo IP3K-KD (44.4); for ΔTi, transition 2: Ti minus Ti of apo IP3K-KD (53.8); for Transition 1 Ti, individual measurement / Transition 2 Ti, individual measurement: source data of Fig. 6b/6c, single replicates; for Transition 1 Dti (Ti-Ti Apo) / Transition 1 Ti Mean / Transition 2 DTi (Ti-Ti Apo) / Transition 2 Ti Mean: source data of Fig. 6c, N 3; for Stabilization of IP3K-KD by ligand (in words): thermal shift, Fig. 6c
T1 construct: human IP3K-KD A isoform (residues 187–461); GST (cleaved yes); made in house; host or cells: Escherichia coli BL21 star (DE3)
Description: (§1) A construct encoding human IP3K-KD A isoform (residues 187–461) into pOPTG vector was used[16]. The protein was expressed in Escherichia coli BL21 star (DE3) strain. Cells were grown at 37 °C to OD600 = 1.0 then induced with 0.4 mM IPTG for 18 h at 16 °C. Protein purification was performed by adapting the reported protocol. Cells were resuspended in buffer A (10 mM Tris pH 7.5 [4 °C], 200 mM NaCl and 2 mM DTT) and disrupted by sonication. Clarified cell lysate was diluted 1/4 in buffer B (10 mM Tris pH 7.5 [4 °C] and 2 mM DTT) and loaded into a 5 mL HiTrap heparin column (GE Healthcare) washed by buffer C (20 mM Tris pH 7.5, 50 mM NaCl and 2 mM DTT), and eluted with a 0.05 M–1 M salt gradient. The eluted sample was subsequently loaded on to a 5 mL glutathione–Sepharose HP column (GE Healthcare), washed with buffer A and eluted with reduced glutathione 10 mM (Sigma-Aldrich) in buffer A. The GST tag was cleaved with home-made TEV (tobacco etch virus) protease overnight at 4 °C, (1:40 TEV/protein mass ratio). After glutathione removal with a PD10 column, the cleaved protein was further purified using a 5 mL glutathione–Sepharose HP column (GE Healthcare) followed by gel filtration on a 16/600 Superdex200 (GE Healthcare) column equilibrated in buffer D (20 mM Tris pH 7.5 [4 °C], 0.05 M (NH4)2SO4 and 2 mM DTT). Protein samples were analyzed by SDS/PAGE, concentrated around 18 mg/mL and stored at −80 °C until use.
Thermal protein denaturation was documented by recording intrinsic protein fluorescence at 330 and 350 nm wavelengths. The fluorescence recorded in each thermal run is plotted as 350/330 nm ratio and used to calculate the Inflection Temperature (Ti). Ti is the temperature at which a protein undergoes a transition in its folding state. This calculation is performed automatically by the Tycho NT.6 software. The protocol optimized for this procedure, involves a heating time of 2 min, a sample volume of 10 μl placed in a very thin capillary, and a temperature ramp from 35 °C (308 K) to 95 °C (368 K). For the experiment, IP3K-KD was diluted with buffer D to achieve a concentration of 0.31 mg/mL (10 μM). It was then mixed with 100 μM of chiral ligands or 200 μM of racemic ligands (all synthesized as stated in this work except InsP3 and InsP4 that were commercial from Avanti Polar Lipids), AMP-PNP (substrate analogues) or ADP (product-like ligands) and 100 μM MgCl2. Microsoft Excel was used to calculate and plot ΔTi values and standard deviations.

IP3K-KD = target: T2, IP3K-KD (Homo sapiens, UniProt P23677); test: HPLC analysis of IP3K-KD reaction mixtures (substrate test); type: biochemical; settings: 150 nM IP3K-KD, 500 μM analogue, 1 mM ATP, 2 h at 30 °C, Fig. 7a
T2 construct: human IP3K-KD A isoform (residues 187–461); GST (cleaved yes); made in house; host or cells: Escherichia coli BL21 star (DE3)
Description: as §1

[2] = target: T1, IP3K-KD (human IP3K-KD A isoform, residues 187–461); test: Ligand displacement assay: fluorescence polarization (anisotropy) of 2-FITC-InsP3/IP3K-KD complex; type: binding; settings: for IC50: 100 nM IP3K-KD, 2 nM 2-FITC-InsP3, 20 mM HEPES pH 7.5, 1 mM EDTA, 50 mM KCl, n=4 replicates, 5-s and 5-p racemic, read-out: IC50, displacement of 2-FITC-InsP3 from IP3K-KD; for Kd: estimated Ki (Kd) from IC50 with [2-FITC-InsP3] 2 nM and its Kd 68 nM, read-out: Kd inferred from IC50 (Cheng and Prusoff)
Description: as §1
Binding of a competing/displacing ligand to protein is observed as a decrease in the polarization (anisotropy) of 2-FITC-InsP3. A comparison of the strength of binding of enzyme substrates, analogues and products to IP3K-KD was obtained by measurement of fluorescence polarization (here anisotropy) of 2-FITC-InsP3/IP3K-KD complex. Experimentally, 100 nM IP3K-KD was mixed with 2 nM 2-FITC-InsP3[37] in 20 mM HEPES pH 7.5, 1 mM EDTA and 50 mM KCl with the addition of displacing compounds over a range of 1 nM–50 μM. Assays were analyzed using a ClarioSTAR plate reader and IC50 values determined from fit of the data to a 4-parameter logistic as described. From IC50 values, we have estimated the Ki (Kd) values for the displacing ligands using the equation of Cheng and Prusoff:[69]1 Ki=IC50/1+L/Kd where [L] is the ligand (2-FITC-InsP3) concentration and Kd the dissociation constant for its interaction with IP3K-KD. […] Consequently, the Ki values for the displacing ligands differ trivially from their IC50 values.

T1 sequence (P23677 187-461): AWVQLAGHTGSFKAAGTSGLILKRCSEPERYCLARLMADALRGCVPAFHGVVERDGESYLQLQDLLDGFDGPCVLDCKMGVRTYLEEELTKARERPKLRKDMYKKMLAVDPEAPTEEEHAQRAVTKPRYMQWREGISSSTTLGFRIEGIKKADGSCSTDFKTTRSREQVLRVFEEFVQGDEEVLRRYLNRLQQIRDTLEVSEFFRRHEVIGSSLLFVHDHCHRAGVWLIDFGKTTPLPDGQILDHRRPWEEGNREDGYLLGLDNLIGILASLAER
T2 sequence (P23677 187-461): as above

Ti, transition 1 (mean inflection temperature) [1] | Ti, transition 2 (mean inflection temperature) [1] | Binding to IP3K (in words) [1] | ΔTi, transition 1 [1] | ΔTi, transition 2 [1] | Transition 1 Ti, individual measurement [1] | Transition 2 Ti, individual measurement [1] | Transition 1 Dti (Ti-Ti Apo) [1] | Transition 1 Ti Mean [1] | Transition 2 DTi (Ti-Ti Apo) [1] | Transition 2 Ti Mean [1] | IC50 [2] | Kd [2] [nM] | SMILES | Stabilization of IP3K-KD by ligand (in words) [1] | Ability to act as IP3K substrate (in words) (IP3K-KD)
51.7 ± 0.1 ºC | 57.3 ± 0.1 ºC | – | 7.3 ± 0.3 ºC | 3.5 ± 0.2 ºC | 51.8 and 51.7 (2×) | 57.2 and 57.3 (2×) | 7.3 | 51.7 | 3.5 | 57.3 | – | – | O=P(O)(O)O[C@@H]1[C@H](O)[C@@H](O)[C@@H](OP(=O)(O)O)[C@H](OP(=O)(O)O)[C@H]1O [4-s, L-chiro-inositol 2,3,5-trisphosphate] | – | –
52.9 ± 0.2 ºC | 58.2 ± 0.2 ºC | – | 8.5 ± 0.3 ºC | 4.4 ± 0.2 ºC | 52.8 and 52.9 and 53.1 | 58.1 (2×) and 58.4 | 8.5 | 52.9 | 4.4 | 58.2 | 140 nM and 139 nM | 136 | O=P(O)(O)O[C@@H]1[C@H](O)[C@H](O)[C@@H](OP(=O)(O)O)[C@H](OP(=O)(O)O)[C@H]1O [InsP3, D-myo-inositol 1,4,5-trisphosphate, reference compound] | – | –
53.5 ± 0.2 ºC | 58.8 ± 0.2 ºC | – | 9.1 ± 0.4 ºC | 5.0 ± 0.3 ºC | 53.7 and 53.3 and 53.5 | 59.0 and 58.6 and 58.7 | 9.1 | 53.5 | 5.0 | 58.8 | 60 nM | 58 | O=P(O)(O)O[C@H]1[C@H](O)[C@@H](OP(=O)(O)O)[C@H](OP(=O)(O)O)[C@@H](OP(=O)(O)O)[C@H]1O [InsP4, D-myo-inositol 1,3,4,5-tetrakisphosphate, reference compound] | – | –

Continued, compound first:

SMILES | Ti, transition 1 (mean inflection temperature) [1] | Ti, transition 2 (mean inflection temperature) [1] | Binding to IP3K (in words) [1] | ΔTi, transition 1 [1] | ΔTi, transition 2 [1] | Transition 1 Ti, individual measurement [1] | Transition 2 Ti, individual measurement [1] | Transition 1 Dti (Ti-Ti Apo) [1] | Transition 1 Ti Mean [1] | Transition 2 DTi (Ti-Ti Apo) [1] | Transition 2 Ti Mean [1] | IC50 [2] | Kd [2] [nM] | Stabilization of IP3K-KD by ligand (in words) [1] | Ability to act as IP3K substrate (in words) (IP3K-KD)
O=P(O)(O)OC[C@H]1O[C@H](CO)[C@@H](OP(=O)(O)O)[C@H](OP(=O)(O)O)[C@H]1O [7b–s, α-D-glucopyranosylmethanol 3,4,1’- trisphosphate] | 45.6 ± 0.7 ºC | 54.4 ± 0.3 ºC | do not, or barely, bind IP3K | 1.2 ± 0.7 ºC | 0.6 ± 0.3 ºC | 45.4 and 45.1 and 46.4 | 54.1 and 54.6 and 54.4 | 1.2 | 45.6 | 0.567 | 54.4 | 6990 nM | 6790 | stabilize IP3K-KD much less than InsP3 | weaker substrates; also recorded: poor substrate activity for IP3K
CO[C@@H]1O[C@H](CO)[C@@H](O[C@H]2O[C@H](CO)[C@@H](OP(=O)(O)O)[C@H](OP(=O)(O)O)[C@H]2O)[C@H]1OP(=O)(O)O [compound 8, ribophostin] | 44.2 ± 0.2 ºC | 54.1 ± 0.1 ºC | do not, or barely, bind IP3K | -0.2 ± 0.3 ºC | 0.3 ± 0.2 ºC | 44.2 and 44.1 and 44.4 | 54.1 (2×) and 54.2 | -0.167 | 44.2 | 0.333 | 54.1 | – | – | failure to obtain crystal complexes or observe protein stabilization | –
CO[C@@H]1O[C@H](CO)[C@@H](O[C@H]2[C@H](O)[C@H](O)[C@@H](OP(=O)(O)O)[C@H](OP(=O)(O)O)[C@H]2O)[C@H]1OP(=O)(O)O [compound 9, D-chiro-inositol ribophostin] | 44.5 ± 0.4 ºC | 54.5 ± 0.1 ºC | do not, or barely, bind IP3K | 0.1 ± 0.5 ºC | 0.7 ± 0.2 ºC | 44.2 and 44.9 and 44.5 | 54.5 (2×) and 54.4 | 0.133 | 44.5 | 0.667 | 54.5 | – | – | failure to obtain crystal complexes or observe protein stabilization | –
O=P(O)(O)O[C@@H]1[C@@H](O)[C@H](OP(=O)(O)O)[C@@H](OP(=O)(O)O)[C@H](OP(=O)(O)O)[C@H]1O [1-p, scyllo-inositol 1,2,3,5-tetrakisphosphate] | 54.7 ± 0.2 ºC | 59.9 ± 0.2 ºC | – | 10.3 ± 0.3 ºC | 6.1 ± 0.2 ºC | 54.7 and 54.9 and 54.6 | 59.7 and 60.0 and 59.9 | 10.3 | 54.7 | 6.1 | 59.9 | 51 nM | 50 | – | –
O=P(O)(O)O[C@@H]1[C@@H](O)[C@@H](O)[C@@H](OP(=O)(O)O)[C@H](OP(=O)(O)O)[C@H]1O [2-s, D-myo-inositol 1,4,6-trisphosphate] | 53.1 ± 0.3 ºC | 58.4 ± 0.2 ºC | – | 8.7 ± 0.4 ºC | 4.6 ± 0.2 ºC | 53.1 and 52.8 and 53.3 | 58.2 and 58.5 and 58.4 | 8.7 | 53.1 | 4.6 | 58.4 | – | – | – | –
O=P(O)(O)O[C@@H]1[C@@H](O)[C@H](OP(=O)(O)O)C[C@@H](O)[C@H]1OP(=O)(O)O [3-s, D-3-deoxy-myo-inositol 1,4,6-trisphosphate] | 52.0 ± 0.2 ºC | 57.4 ± 0.1 ºC | – | 7.6 ± 0.3 ºC | 3.6 ± 0.2 ºC | 52.1 and 51.8 and 52.0 | 57.4 (2×) and 57.5 | 7.6 | 52.0 | 3.6 | 57.4 | – | – | – | –
